Here are results for two compounds from patent publication US20090124622A1, “Medicament Containing a Thiazole Derivative as an Active Ingredient” (priority 2006, published 2009).

Test [1] has as its system guinea pig delayed asthma model. Put plainly: Guinea pig delayed asthma model. The class given is in vivo. The note with it: Cavia porcellus, oral, 1 hour before OVA inhalation, read-out: ED50 (inhibition of delayed asthma reaction, AUC4-8hr of % sRaw/TV). As for the experimental part: Hartley male guinea pigs were purchased from SLC, and after quarantining them for 1 week, at the week when the qualantine was finished the first sensitization was carried out by antigen exposure. By using ultrasonic nebulizer (OMRON NE-U12, condition: Vapor amount: maximum, Air: small) 2% (w/v) ovalbumin (OVA, by Sigma-Aldrich) in saline solution was vaporized, and by disposing for 10 minutes, they were first sensitized. At sensitizing, the guinea pigs were fixed on a body holder cartridge for them (by M.I.P.S.), and they were set on disposal chamber holder for 8 guinea pigs (by M.I.P.S.). Additional sensitization was carried out 7 days after the first sensitization as well. […] Breath function was measured by a general breath function measurement system (by M.I.P.S.) using Double flow plestymograph method (Penny A. Hutson et al. Am Rev Respir Dis 1988 137, 548-557). The breath function was measured before reaction induction (pre-value), 5 minutes, 1, 2, 3, 4, 5, 6, 7, and 8 hours after completion of reaction induction. By using one of parameters, sRaw/TV (specific airway resistance/once breath) as an index of improvement of respiratory function, variation rate per individual of sRaw/TV (% sRaw/TV) against pre-value between each measured times was calculated. Plotting % sRaw/TV with time, Area Under the Curve (AUC4-8hr) from 4 hours to 8 hours after reaction induction was calculated. […]

In test [2] the test system is mast cells derived from murine bone marrow. Put plainly: Histamine release from antigen-stimulated murine bone marrow-derived mast cells. It is filed as cell-based, mouse. The following applies: DNP-HSA 100 ng/ml, 20 minutes; IgE-sensitized mast cells. From the text:
(§1) According to almost the same method as the method by Razin et al. (J. Immunol. 132, 1479-1486 (1984)), murine bone marrow cells were differentiated into mast cells. Namely, bone marrow cells from femur of a female BALB/c mouse (purchased from Charles River Japan) were collected, and cultured in RPMI 1640 culture medium, containing 10% […] FBS prepared by Invitrogen, and 50% WEHI-3 cell culture supernatant. After culture for more than three weeks and confirming differentiation into mast cells under microscope, the cells were subjected to the following experiments.
Mast cells were suspended in the concentration of 2×10^6 cell/ml, and thereto was added 0.1 μg/ml anti-mouse DNP-Age antibody (SPE7, by Sigma-Aldrich). The cell suspension was incubated overnight in a CO2 incubator (5% CO2, 37° C.), and passively sensitized. […] The cell suspension (80 μl) were added to a 96-well culture plate (by Asahi-techno-glass Co. Ltd.), and then a test sample in DMSO solution or 2.5% DMSO solution only (10 μl) was added. After the plate was reinsulated in a CO2 incubator for 10 minutes, to stimulate, 10 μl of 1 μg/ml of antibody (DNP-HSA, by Sigma-Aldrich, final concentration of antigen 100 ng/ml) was added to each well. […] After terminating the reaction by putting the plate on ice, histamine concentration of the supernatant was measured. […]

Test [3] has the same test system. In words: Cys-LT release from antigen-stimulated murine bone marrow-derived mast cells. The class given is cell-based, mouse. The following applies: DNP-HSA 10 ng/ml; IgE-sensitized mast cells.
Excerpt: as §1
(§2) Mast cells were suspended in the concentration of 2×10^6 cell/ml, and thereto was added 0.1 μg/ml anti-mouse DNP-Age antibody (SPE7, by Sigma-Aldrich). The cell suspension was incubated overnight in a CO2 incubator (5% CO2, 37° C.), and passively sensitized. […] After terminating the reaction by putting the plate on ice, histamine concentration of the supernatant was measured. […]
This experiment was conducted in the almost same method as the experiment of histamine release except that the final concentration of antigen (DNP-HSA) was 10 ng/ml. The concentration of […] in supernatant was measured by using Cysteinyl-Leukotriene EIA Kit (by Cayman Chemical).

For test [4] the test system is unchanged. Put plainly: Cytokine (TNF-α, IL-13) release from antigen-stimulated murine bone marrow-derived mast cells. It is filed as cell-based, mouse. The note with it: DNP-HSA 3 ng/ml, 4 hours.
Excerpt: as §1, §2
This experiment was conducted in almost the same method as the experiment on histamine release except that the final concentration of antigen (DNP-HSA) was 3 ng/ml, and reaction hours after addition of the antigen were 4 hours. The concentrations of TNF-α, and IL-13 in the supernatant were measured by using Enzyme-linked immunoassay kit (Quantikine (reg. trademark) Mouse TNF-α/TNFSF1A and IL-13 Immunoassay, by R&D systems).

Another test has as its system guinea pig eosinophiles. Put plainly: Release of prostaglandin D2 and thromboxane B2 from PAF-induced guinea pig eosinophiles. The note with it: PAF C-16 10^-7M, 10 minutes. It is filed as cell-based. As for the experimental part: In accordance with almost the same as the method of Sugasawa et al. (Agents and Actions 37, 233-237 (1992)), eosinophiles were separated and purified from abdominal of a male Hartley guinea pig (from SLC) and the cell concentration was adjusted to 1.25×10^7 cell/ml with modified hanks solution. The cell suspension (80 μl) were added to a 96-well culture plate (by Asahi-techno-glass Co. Ltd.), and then a test sample in DMSO solution or 2.5% DMSO solution only (10 μl) was added. After the plate was preincubated in a CO2 gas incubator for 10 minutes (5% CO2, at 37° C.), thereto was added Platelet Activating Factor (PAF C-16, by Cayman Chemical) 10 μl (final concentration of PAF C-16: 10−7M), and the mixture was further incubated in a CO2 gas incubator for 10 minutes. The concentrations of thromboxane B2 and prostaglandin in the supernatant were measured by using immunoassay kit (Thromboxane B2 EIA kit, Prostaglandin D2-MOX EIA kit, by Cayman Chemical).

For test [5], the system named is guinea pig rhinitis model. Put plainly: Nasal cavity resistance change (sRaw) in guinea pig rhinitis model. It is filed as in vivo. The following applies: oral. The protocol: Referring to the report (74th Japanese Pharmacological Society (2001), Abstract number P-258, Establishment delayed rhinitis model by a guinea pig and effect of polysulfonic acidified hyaluronic acid, Masaki Matsudo, Junichi Fuchigami et al.), the following evaluation was conducted.
A saline solution (1 ml) containing OVA (50 mg) and aluminum hydroxide gel (1 mg) (by PIERCE) was percuteneously administered to a male Hartley guinea pig (from Kyudo Co. Ltd.) on back collum to make active sensitization.
SMP-028 was orally administered for 15 days starting from sensitization once a day (5 ml/body weight (kg)). The drug was orally administered before 1 hour on the sensitized day or on the antibody-challenged day. To saline solution challenged group (saline group) and control group was orally administered 0.5% MC as well. To dexamethasone group (dex. group) was orally administered the drug before 16 hours and 2 hours of antibody challenge. […]
By using a general respiratory function analysis system (PULMOS-I, by M.I.P.S), nasal cavity resistance of guinea big under palinesthesia was measured in accordance with the method of Double flow plestymograph. Because antibody challenge region was restricted to nose part, sRaw which was analyzed by computer and outputted (specific airway resistance) was served as an index of nasal cavity resistance. Before antibody nasal challenge, 10 minutes, 2, 3, 4, 5, 6 and 7 hours after the challenge, each sRaw per animal was once measured, and average of 100 breathes was made sRaw at each measured time. From the sRaw value by using analysis soft on a general respiratory function analysis system (WinPUL13 ver. 1.21) and using the calculation formula (sRaw increased rate (%) during each measuring times=100×(sRaw−sRaw before challenge during each measuring times)/sRaw before challenge), sRaw change rate was calculated. […] AUC3-7hr was calculated by trapezoid (echelon) method. Furthermore, from IAR and LAR in medium control group and each test group, inhibiting rate (%) on each test group against medium control group was calculated.

The test system of test [6] is guinea pig rhinitis model. Put plainly: Inflammatory mediators (TNF, LTE4) in nasal cavity lavage fluid of guinea pig rhinitis model. It is filed as in vivo. The following applies: 8 hours after antigen nasal challenge. As for the experimental part: Eight hours after antigen nasal challenge, by intraperitoneally administering pentobarbital sodium (Nembutal (reg. trade name), by Dainippon Sumitomo Pharma) 30 mg/body weight (kg) to anesthetize, the animal was fixed at the back. Opening bronchial, a cannula was inserted into a lung site to continue breath, and fixed by knotting. After stopping the channel of oral cavity and nasal cavity, from a part of opened bronchia to a side of nasal cavity a cannula was inserted, and knotted, and to the cannula was connected syringe pump. A saline solution was refluxed in the nasal cavity at flow speed (1 ml/minute) for 10 minutes, and the refluxed solution was recovered to get nasal cavity lavage fluid, NCLF). NCLF was centrifuged (1710.5×g (3000 rpm), 4° C., 10 minutes), and the supernatant was freezed at −80° C., and subjected to experiment of Example 5.
The supernatant of NCLF obtained in Example 4 was freezed at −80° C. and preserved. After thawing the sample, the concentration of LTE4 was measured by immuno assay kit (Leukotriene E4 EIA kit, by Cayman Chemical). The concentration of TNF was measured by bioassay method using L929 cells (from Dainippon Sumitomo Pharma) (David H., et al., J. Allergy Clin. Immunol. 89, 958-967 (1992)). Using recombinant human TNF-α (by PeproTech) as a standard, the result was shown by potency of human TNF-α cytotoxicity.

Setting [7] is: once a day for 15 days, OVA nasal challenge.

For the compound `CNC(=O)NCCn1c(-c2ccc(N3CCOCC3)cc2)csc1=Nc1ccc(F)cc1` [Compound 2, reference compound], the ED50 in test [1] is 0.69 mg/kg.
Turning to `CNC(=O)NCCn1c(-c2ccc(N3CCOCC3)cc2)csc1=Nc1cccc(F)c1` [SMP-028, N-{2-[2-[(3-Fluorophenyl)imino]-4-(4-morpholin-4-ylphenyl)-1,3-thiazol-3(2H)-yl]ethyl}-N′-methylurea], the “release of histamine from mast cells” value in test [2] is “inhibited”. The “release of Cys-LT from mast cells” value in test [3] is listed as “inhibited”. In addition, in test [4], the “release of IL-13 from mast cells” value was “inhibited” and the “release of TNF-α from mast cells” value was “inhibited”. Further, in the test with guinea pig eosinophiles, the “release of prostaglandin D2 from eosinophiles” value was “concentration-dependently inhibited” and the “release of thromboxane B2 from eosinophiles” value is “concentration-dependently inhibited”. Moreover, in test [5] (30 mg/kg), the “efficacy on immediate and delayed nasal congestion reaction compared with dexamethasone” value is recorded as “efficacy comparative to dexamethasone”. Besides, in test [5] (setting [7]), the “delayed nasal congestion reaction (LAR, AUC3-7hr of sRaw increased rate)” value was “dose-dependently inhibited” and the “immediate nasal congestion reaction (IAR, sRaw increased rate 10 minutes after challenge)” value was “dose-dependently inhibited”. Besides, the “production of LTE4 in nasal cavity (NCLF)” value in test [6] (EIA) was “showed a tendency and activity of inhibition”. The “production of TNF in nasal cavity (NCLF)” value in test [6] (L929 bioassay) is “showed a tendency and activity of inhibition”. Further, the ED50 in test [1] is 0.44 mg/kg.
